Assay results as given in patent US20240277810A1, “INTERFERONS AND NUCLEAR EXPORT INHIBITORS FOR USE IN METHODS OF TREATING CANCER” (St. Jude Children's Research Hospital, Inc., priority 2021, published 2024).
“Also recorded” adds a separate entry of the source.

B1: IFN-β: type I interferon (PBL Assay), 50 ng/mL in cells, 1 μg per mouse (protein, listed as Homo sapiens)
chain: MTNKCLLQIALLLCFSTTALSMSYNLLGFLQRSSNFQCQKLLWQLNGRLEYCLKDRMNFDIPEEIKQLQQFQKEDAALTIYEMLQNIFAIFRQDSSSTGWNETIVENLLANVYHQINHLKTVLEEKLEKEDFTRGKLMSSLHLKRYYGRILHYLKAKEYSHCAWTIVRVEILRNFYFINRLTGYLRN

Experiments:
[1] = tested on: bone marrow-derived macrophages (BMDMs); assay: Cell death in BMDMs quantified by propidium iodide staining (real-time imaging); format: cell-based, mouse; conditions: for cell death compared with wild-type cells: Adar1−/− BMDMs; for cell death (PI staining): wild-type BMDMs, 24 hours, 5 μM KPT-330 or 5 ng/ml leptomycin B, with or without 50 ng/mL IFN-β or IFN-γ
Method: (§1) Cell Culture. Primary mouse bone marrow-derived macrophages (BMDMs) were generated from the bone marrow of wild-type and the indicated mutant mice. Cells were grown for 5-6 days in Iscove's Modified Dulbecco's Media (IMDM, Thermo Fisher Scientific) supplemented with 1% non-essential amino acids (Thermo Fisher Scientific), 10% fetal bovine serum (FBS, Biowest), 30% L929-conditioned media, and 1% penicillin and streptomycin (Thermo Fisher Scientific). BMDMs were then seeded into antibiotic-free media at a concentration of 1×10^6 cells into 12-well plates and incubated overnight.
(§2) Cell Stimulation. BMDMs were treated with 5 μM of KPT-330 (Selleckchem) or 5 ng/ml of leptomycin B (Sigma) in the presence and absence of 50 ng/mL of IFN-γ (Peprotech) or 50 ng/mL of IFN-β (PBL Assay) for 12 or 24 hours, as indicated.
Real-time Imaging for Cell Death. The kinetics of cell death were determined using the INCUCYTE® S3 (Essen BioScience) live-cell analysis system. BMDMs (5×10^5 cells/well) were seeded in 24-well tissue culture plates. Cells were treated with the indicated stimuli and stained with propidium iodide (PI; Life Technologies) following the manufacturer's protocol. The plate was scanned, and fluorescent and phase-contrast images (4 image fields/well) were acquired in real-time every 1 hour from 0 to 24 hours post-treatment. PI-positive dead cells are marked with a red mask for visualization. The image analysis, masking, and quantification of dead cells were done using the software package supplied with the INCUCYTE® imager.

BMDMs = assay: Immunoblot analysis of pyroptosis, apoptosis and necroptosis (PANoptosis) molecules in BMDMs; format: cell-based, mouse; conditions: for cleavage of caspase-1 and activation of GSDME, caspase-8, -3, -7 and MLKL: Adar1−/− BMDMs, NEI alone
Method: as §1, §2
Immunoblot Analysis. Cell lysates and culture supernatants were combined in caspase lysis buffer (containing 1× protease inhibitors (Roche), 1× phosphatase inhibitors (Roche), 10% NP-40, and 25 mM DTT) and 4× sample loading buffer (containing SDS and 2-mercaptoethanol) for immunoblot analysis of caspases. For immunoblot analysis of signaling components, supernatants were removed, and cells were washed once with Dulbecco's phosphate-buffered saline (DPBS, Thermo Fisher Scientific), followed by lysis in radioimmunoprecipitation assay (RIPA) buffer and sample loading buffer. Proteins were separated by electrophoresis through 8-12% polyacrylamide gels. Following electrophoretic transfer of proteins onto polyvinylidene fluoride (PVDF) membranes (Millipore), nonspecific binding was blocked by incubation with 5% skim milk, then membranes were incubated with primary antibodies against: caspase-3 (Cell Signaling Technology (CST), 1:1000), cleaved caspase-3 (CST, 1:1000), caspase-7 (CST, 1:1000), cleaved caspase-7 (CST, 1:1000), caspase-8 (AdipoGen, 1:1000), cleaved caspase-8 CST, 1:1000), caspase-11 (Novus Biologicals, 1:1000), caspase-1 (AdipoGen, 1:1000), GAPDH (CST, 1:1000), ZBP1 (AdipoGen, 1:1000), pMLKL (CST, 1:1000), tMLKL (Abgent, 1:1000), ADAR1 (Santa Cruz Biotechnology, 1:500), tRIPK1 (CST, 1:1000), GSDMD (Abcam, 1:1000), GSDME (Abcam, 1:1000), RIPK3 (CST, 1:1000), pSTAT1 (CST, 1:1000), tSTAT (CST, 1:1000), pIRF3 (CST, 1:1000), HA (Millipore, 1:1000), β-actin (Proteintech, 1:1000). Membranes were then washed and incubated with the appropriate horseradish peroxidase (HRP)-conjugated secondary antibodies (Jackson ImmunoResearch Laboratories; anti-rabbit, 1:5000; anti-mouse 1:5000; and anti-rat, 1:5000). Proteins were visualized using Immobilon Forte Western HRP Substrate (Millipore).

endogenous dsRNA = assay: dsRNA by J2 antibody dot-blot analysis and immunofluorescence in BMDMs; format: cell-based, mouse; conditions: for amount of dsRNA: Adar1−/− BMDMs; for amount of dsRNA compared with media-treated cells: wild-type BMDMs
Method: Dot Blot Analysis. For dsRNA analysis, total RNA was isolated from the cells. Equal volumes (2 μl containing 1 μg of RNA) of the RNA were dotted on HYBONDO N+ membrane (GE Healthcare), dried and auto crosslinked in a UV Stratalinker 2400 (Stratagene) two times. The membrane was then blocked in 5% milk in TBST for 1 hour and probed with J2 antibody (1:1000, Scicons) at 4° C. overnight. On the next day, the membrane was washed with TBST 3 times and probed with secondary goat-anti-mouse HRP antibody in 5% milk at room temperature for 1 hour. The total […] was detected using methylene blue.
Immunofluorescence Staining. BMDMs were washed with phosphate-buffered saline (PBS) and fixed in 4% paraformaldehyde for 15 minutes at room temperature, followed by permeabilization for 10 minutes in 0.5% TRITON® X-100 (2-[4-(2,4,4-trimethylpentan-2-yl)phenoxy]ethanol). Cells were blocked in 5% normal goat serum (Life Technologies) for 1 hour at room temperature. Samples were incubated with anti-ZBP1 antibody (1:250 dilution, Adipogen) or anti-J2 antibody (1:100, Millipore) overnight at 4° C. Cells were then washed three times with PBS and incubated with ALEXA FLUOR® 647 fluorescent dye-conjugated antibody against mouse immunoglobulin G (1:250, Invitrogen) and counterstained with DAPI (4′,6-diamidino-2-phenylindol, Life Technologies) for 1 hour at room temperature. Cells were washed three times with PBS and imaged using a Leica SP8 confocal microscope.

[2] = tested on: endogenous retroelements (EREs); assay: RT-PCR expression of endogenous retroelements (EREs) in BMDMs; format: cell-based, mouse; conditions: wild-type BMDMs, NEI alone
Method: RT-PCR Analysis. Total RNA was extracted using TRIZOL® (Thermo Fisher Scientific) and converted into cDNA by using the High-Capacity cDNA Reverse Transcription Kit (Applied Biosystems). Real-time quantitative PCR was performed on an Applied Biosystems 7500 real-time PCR instrument with 2×SYBR™ Green (Applied Biosystems). For ERE expression analysis, 5 μg of total RNA extracted from the cells was dissolved in 46 μl of water and mixed with 3.5 μl NaCl (5 M stock). Then, 0.5 μl RNase A (10 mg/ml stock, Thermo Fisher Scientific) or water (as mock) was added to a total volume of 50 μl and mixed, followed by incubation at room temperature for 10 minutes. Then 1 ml acid-guanidinium-phenol based reagent sold under the tradename TRIZOL® was directly added to the mixture to terminate digestion, and the RNA was extracted. The RNA transcripts of selected endogenous retroelements (EREs) were measured by RT-PCR with GAPDH as an internal control. The ratios of (ERE/GAPDH)RNAase-A/(ERE/GAPDH)mock were calculated as fold enrichment.

ZBP1 = assay: Co-immunoprecipitation of ZBP1 with ADAR1 and RIPK3 in BMDMs; format: cell-based, mouse; conditions: wild-type BMDMs, 12 hours
Method: Co-Immunoprecipitation Assay. BMDMs (10×10^6 cells) were seeded into 10-cm dishes and treated with IFN-β or KPT-330 or combination of IFN-β and KPT-330 for 12 hours. Then, the cells were lysed in a buffer containing 20 mM Tris-HCl (pH 7.4), 100 mM NaCl, 30 mM KCl, and 0.1% NP-40. After centrifugation at 16,000 g for 10 minutes, the lysates were incubated with anti-ZBP1 antibody (AdipoGen) with protein A/G PLUS-Agarose (Santa Cruz Biotechnology) for overnight incubation at 4° C. After washing with the above buffer, the immunoprecipitated proteins were harvested by boiling in 1×SDS loading buffer at 100° C. for 5 minutes.

B16-F10 melanoma cells = assay: B16-F10 melanoma model in mice; format: in vivo, mouse; conditions: wild-type mice; KPT-330 15 mg/kg oral, IFN-γ 10 μg or IFN-α/IFN-β 1 μg i.p., days 8, 10 and 13 after implantation
Method: Melanoma Model. The mouse melanoma cell line B16-F10 (ATCCR CRL-6322™) was cultured in a humidified, 5% CO2 incubator at 37° C., and grown in Dulbecco's Modified Eagle Medium (DMEM) with 10% FBS and 100 U/mL penicillin/streptomycin. Male and female 6-12-week-old mice were shaved on their lower back and engrafted with B16-F10 melanoma cells by subcutaneously injecting 1×10^6 cells in 200 μL PBS. Tumors were measured with digital calipers, and tumor volume was calculated using the formula: volume=(length×width^2)×½. For treatment with IFN-γ (Peprotech), each mouse was injected interperitoneally with 10 μg of IFN-γ in 100 μl of saline. For treatment with IFN-α or IFN-β, each mouse was injected interperitoneally with 1 μg of IFN-α or IFN-β. For treatment with KPT-330 (Selleckchem), each mouse was orally administered 300 μl of KPT-330 (15 mg/kg) suspended in 0.6% polyoxyalkylene ether sold under the tradename PLURONIC® (Gibco) and 0.6% polyvinylpyrrolidone. The treatment was given on days 8, 10 and 13 after tumor implantation.

| Molecule | cell death compared with wild-type cells [1] | cell death (PI staining) [1] | cleavage of caspase-1 and activation of GSDME, caspase-8, -3, -7 and MLKL (BMDMs) | apoptosis: cleavage of caspase-8, -3 and -7 (BMDMs; wild-type BMDMs) | cleavage of GSDME (pyroptosis) (BMDMs; wild-type BMDMs) | phosphorylation of MLKL (necroptosis) (BMDMs; wild-type BMDMs) | amount of dsRNA (endogenous dsRNA) | amount of dsRNA compared with media-treated cells (endogenous dsRNA) | expression of EREs (Mus-D, Line1, ERV-L) [2] | interaction of ZBP1 with ADAR1 (ZBP1) | interaction of ZBP1 with RIPK3 (ZBP1) | melanoma tumor growth / regression (B16-F10 melanoma cells) | expression of ZBP1 / ADAR1 (BMDMs; wild-type BMDMs) |
| --- | --- | --- | --- | --- | --- | --- | --- | --- | --- | --- | --- | --- | --- |
| O=C(/C=C\n1cnc(-c2cc(C(F)(F)F)cc(C(F)(F)F)c2)n1)NNc1cnccn1 [KPT-330, selinexor] | increased cell death | low level of cell death | increased cleavage of caspase-1 and activation | induced apoptosis | displayed cleavage of GSDME | low level of phosphorylation of MLKL | An increase in the amount of dsRNA | slightly increased the amounts of dsRNA | slightly upregulated | some interaction | some interaction | reduced melanoma growth | – |
| CCC(=C/[C@H](C)C/C=C/C(C)=C/[C@@H](C)C(=O)[C@@H](C)[C@H](O)[C@@H](C)C/C(C)=C/C(=O)O)/C=C/[C@@H]1OC(=O)C=C[C@@H]1C [LMB, Leptomycin B] | increased cell death | low level of cell death | increased cleavage of caspase-1 and activation | induced apoptosis | displayed cleavage of GSDME | low level of phosphorylation of MLKL | An increase in the amount of dsRNA | slightly increased the amounts of dsRNA | slightly upregulated | – | – | – | – |
| B1 | – | – | – | – | – | – | – | – | – | robust interaction | – | – | induced ZBP1 expression; also recorded: upregulated |
